The text below walks through data of PMC7982526, “Discovery of New α-Glucosidase Inhibitors: Structure-Based Virtual Screening and Biological Evaluation” (Frontiers in Chemistry, 2021).

The target in series [1] is T1, α-Glucosidase (Sigma, G5003) derived from baker's yeast (Saccharomyces cerevisiae, UniProt P53341).
T1 construct: purchased Sigma-Aldrich G5003
As to the kind of experiment: biochemical. It is filed as biochemical. The conditions noted are these: for inhibition ratio against α-glycosidase: at 100 μM; for IC50: mean ± SD of three independent experiments, six concentrations, 37°C, pH 6.8, read-out: IC50 against α-glycosidase. The procedure: The α-glucosidase inhibitory evaluation of the purchased 52 compounds was performed according to the previously described protocol ([Tang et al., 2014]; [Ye et al., 2019]). α-Glucosidase (Sigma, G5003) derived from baker’s yeast, and pNPG (Sigma, N1377) and the substrate were both purchased from Sigma-Aldrich. […] The compounds and α-glucosidase were preincubated in phosphate buffer (37°C, 15 min). Then, 25 μL substrate buffer was added to the system to start the reaction, and the incubation was continued at 37°C for 15 min. Finally, the reaction was terminated by the addition of 50 μL 0.2 M reaction termination solution. The optical density (OD) was measured at an absorbance wavelength of 405 nm using a microplate reader (Tecan, Switzerland). The IC50 values were estimated with six different concentrations, and each sample was measured three times in parallel experiments.

The target of series [2] is T2, α-glucosidase (Saccharomyces cerevisiae, UniProt P53341).
T2 construct: purchased Sigma-Aldrich G5003
T2 sequence (P53341 whole entry): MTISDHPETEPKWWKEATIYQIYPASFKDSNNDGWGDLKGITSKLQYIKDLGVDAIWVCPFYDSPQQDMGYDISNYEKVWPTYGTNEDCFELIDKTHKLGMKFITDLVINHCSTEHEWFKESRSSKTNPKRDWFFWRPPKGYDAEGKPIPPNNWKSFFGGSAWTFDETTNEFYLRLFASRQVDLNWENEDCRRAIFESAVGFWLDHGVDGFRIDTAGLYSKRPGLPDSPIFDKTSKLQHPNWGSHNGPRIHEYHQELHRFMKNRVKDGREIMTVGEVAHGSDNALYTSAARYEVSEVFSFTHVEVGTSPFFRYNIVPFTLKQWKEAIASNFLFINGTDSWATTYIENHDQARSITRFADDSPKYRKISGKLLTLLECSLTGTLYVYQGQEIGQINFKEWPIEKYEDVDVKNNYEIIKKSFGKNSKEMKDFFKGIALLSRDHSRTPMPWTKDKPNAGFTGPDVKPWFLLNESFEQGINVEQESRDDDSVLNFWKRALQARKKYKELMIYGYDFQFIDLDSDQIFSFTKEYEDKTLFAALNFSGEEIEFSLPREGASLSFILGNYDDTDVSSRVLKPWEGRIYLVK
As to the kind of experiment: Kinetic assay, Lineweaver-Burk plot analysis. The conditions noted are these: for inhibition type: Lineweaver-Burk plot analysis; for Ki: Lineweaver-Burk plot, substrate pNPG, secondary plot of slopes, read-out: estimated Ki. It counts as biochemical. The protocol:
The inhibition type of the inhibitors against α-glucosidase activities was evaluated based on a described method ([Hou et al., 2009]). Increasing concentrations of substrates pNPG were used in the absence or presence of tested compounds at four different concentrations around the IC50 values. The inhibitory kinetics of the investigated compounds on α-glucosidase was analyzed using the Lineweaver–Burk plot of the substrate concentration and velocity.

In series [3] the target is T2, α-glucosidase. As to the kind of experiment: Fluorescence quenching experiment. It counts as binding, baker's yeast. To be noted: increasing concentration of compound, 30 min, 37°C, excitation 290 nm. The procedure:
According to the previously reported method ([Aguilar-Moncayo et al., 2010]), all fluorescence spectra were measured on a fluorescence spectrophotometer (Agilent Cary Eclipse) equipped with a 10.0-mm quartz cell and a thermostat bath. In the fluorescence spectrophotometer, α-glucosidase (1 U/ml) was pretreated with certain concentrations of inhibitors for 30 min at 37°C. 100 μL of the above solution (pH 6.8) was added accurately to the quartz cell. The blank was used for buffer spectrum values. The fluorescence emission spectra were measured at 37°C. The excitation wavelength was 290 nm, and the emission spectrum was recorded from 320 to 500 nm.

A short description of series [4]: Cell viability assay (MTT). It counts as cell-based. The conditions noted are these: human, LO2 cells (normal hepatocyte cell line), 48 h treatment, read-out: IC50 toward LO2 cells (cytotoxicity). The procedure: The LO2 cell line was cultured in a proper medium supplemented with 10% fetal bovine serum in a humidified atmosphere of 5% CO2 at 37°C. Cell suspensions were plated in 96-well plates at a density of 2 × 10^4 […]. Compounds were solubilized in DMSO at six different concentrations. After incubation for 24 h, the cells were treated with various concentrations of tested substances for 48 h and then incubated with 100 μL of MTT at 37°C for 2 h. The formazan dye product was measured by the absorbance at 490 nm on a Tecan Spark multimode microplate reader (Switzerland).

T1 sequence (P53341 whole entry): as above

Turning to `COc1ccc(-c2c(C#N)c(SCc3nc4ccccc4[nH]3)nc(C)c2C(C)=O)cc1` [compound 44], in series [1], the “inhibition ratio against α-glycosidase” value was “above 50%” and the IC50 (in general, the point on the concentration scale where inhibition reaches its midpoint) stood at 9.99 ± 0.43 µM. In series [2], the inhibition type result was “noncompetitive”; the Ki (commonly the dissociation constant of the complex between target and ligand, obtained from inhibition or displacement) was 15.4 µM. The “fluorescence quenching of α-glycosidase” value in series [3] is given as “gradually quenched in a type of concentration-dependent manner”. Also, the IC50 at 48 h in series [4] was above 100 µM.

For the molecule `Cc1cccc(-c2cc3ncn(CC(=O)NC(=O)Nc4ccccc4)c(=O)c3s2)c1` [compound 7], in series [1], the “inhibition ratio against α-glycosidase” value was “above 50%” and the IC50 is 17.4 ± 1.32 µM. In series [2], the inhibition type result is on record as “noncompetitive” and the inhibition constant (Ki) is 24.2 µM. Moreover, in series [3], the “fluorescence quenching of α-glycosidase” value is “gradually quenched in a type of concentration-dependent manner”. In addition, the IC50 at 48 h in series [4] was above 100 µM.

Consider `O=C(Nc1ccccc1C(=O)NCc1ccco1)c1ccc(F)cc1` [compound 37], for which, in series [1], the “inhibition ratio against α-glycosidase” value was “above 50%” and the half-inhibitory concentration (IC50) is 31.3 ± 3.11 µM. In series [2], the inhibition type entry was “noncompetitive” and the inhibition constant Ki is 11.3 µM. Moreover, the “fluorescence quenching of α-glycosidase” value in series [3] was “gradually quenched in a type of concentration-dependent manner”. Also, in series [4], the concentration for half-maximal inhibition (IC50) at 48 h was above 100 µM.

Turning to `CSc1nc(N)nc(SCC(=O)c2ccc3c(c2)OCO3)c1C#N` [compound 22], in series [1], the “inhibition ratio against α-glycosidase” value is listed as “above 50%” and the 50% inhibitory concentration (IC50) amounted to 35.2 ± 2.14 µM. In series [2], the inhibition type entry is on record as “noncompetitive” and the Ki is 11.3 µM. Further, the “fluorescence quenching of α-glycosidase” value in series [3] is recorded as “gradually quenched in a type of concentration-dependent manner”. Moreover, the half-maximal inhibitory concentration (IC50) at 48 h in series [4] is above 100 µM.
